The source made the active and inactive calls. The rule behind the calls is not given here.
target: Free fatty acid receptor 1 (Homo sapiens, UniProt O14842); assay: Agonist activity at human FFA1 expressed in CHO cells measured by FLIPR assay; assay type: functional, cell-based; settings: not given
Sequence (O14842 whole entry): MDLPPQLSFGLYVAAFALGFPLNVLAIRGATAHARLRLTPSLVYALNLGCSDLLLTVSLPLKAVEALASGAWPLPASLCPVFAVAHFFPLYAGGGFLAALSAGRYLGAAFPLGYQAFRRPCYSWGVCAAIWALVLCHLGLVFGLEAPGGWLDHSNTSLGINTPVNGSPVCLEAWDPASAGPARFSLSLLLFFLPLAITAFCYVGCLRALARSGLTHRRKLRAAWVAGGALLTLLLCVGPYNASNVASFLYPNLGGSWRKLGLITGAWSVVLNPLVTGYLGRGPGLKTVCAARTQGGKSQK

| SMILES | EC50 |
| --- | --- |
| O=C(O)COc1ccc(COc2cccc(-c3nc4cc(Cl)ccc4o3)c2)cc1F | 6.8 µM |
| CCOc1ccc(/C=C/c2cc(OCC)cc(OCc3ccc(OCC(=O)O)c(F)c3)c2)cc1 | 4.2 µM |
| COc1ccc(/C=C/c2cc(OC)cc(OCc3ccc(OCC(=O)O)cc3)c2)cc1 | 10.3 µM |
| COc1ccc(/C=C/c2cc(OC)cc(OCCCCCCCC(=O)O)c2)cc1 | 1.8 µM |
| COc1ccc(-c2cccc(OCc3ccc(OCC(=O)O)c(F)c3)c2)cc1 | 0.4 µM |
| O=C(O)COc1ccc(COc2cccc(-c3nc4ccccc4s3)c2)cc1F | 2.1 µM |

target: T1, Peroxisome proliferator-activated receptor alpha (Homo sapiens, UniProt Q07869); assay: Agonist activity at human PPARalpha measured by dual luciferase reporter gene assay; settings: not given
T1 sequence (Q07869 whole entry): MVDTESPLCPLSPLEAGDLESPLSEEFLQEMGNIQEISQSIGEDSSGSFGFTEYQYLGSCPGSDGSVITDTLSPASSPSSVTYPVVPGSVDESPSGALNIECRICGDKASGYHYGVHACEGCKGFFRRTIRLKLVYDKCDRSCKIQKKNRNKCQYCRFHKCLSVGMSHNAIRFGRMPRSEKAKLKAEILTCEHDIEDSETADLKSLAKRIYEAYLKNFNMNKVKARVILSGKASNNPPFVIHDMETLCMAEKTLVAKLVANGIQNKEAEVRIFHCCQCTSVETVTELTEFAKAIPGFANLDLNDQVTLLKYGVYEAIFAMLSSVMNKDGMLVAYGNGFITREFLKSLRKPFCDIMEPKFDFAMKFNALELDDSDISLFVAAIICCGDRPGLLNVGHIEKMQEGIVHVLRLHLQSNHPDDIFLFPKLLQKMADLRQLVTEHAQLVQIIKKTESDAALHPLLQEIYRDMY

| SMILES | EC50 |
| --- | --- |
| COc1ccc(/C=C/c2cc(OC)cc(OCc3ccc(OC(C)(C)C(=O)O)c(F)c3)c2)cc1 | 2.35 µM |
| O=C(O)COc1ccc(COc2cccc(-c3nc4cc(Cl)ccc4o3)c2)cc1F | 10.8 µM |
| CCOc1ccc(/C=C/c2cc(OCC)cc(OCc3ccc(OCC(=O)O)c(F)c3)c2)cc1 | 12.9 µM |
| COc1ccc(/C=C/c2cc(OC)cc(OCc3ccc(OCC(=O)O)cc3)c2)cc1 | 20.8 µM |
| COc1ccc(/C=C/c2cc(OC)cc(OCCCCCCCC(=O)O)c2)cc1 | 7.5 µM |
| O=C(O)COc1ccc(COc2cccc(-c3nc4ccccc4s3)c2)cc1F | 7.8 µM |

target: T2, Peroxisome proliferator-activated receptor gamma (Homo sapiens, UniProt P37231); assay: Agonist activity at human PPARgamma measured by dual luciferase reporter gene assay; settings: not given
T2 sequence (P37231 whole entry): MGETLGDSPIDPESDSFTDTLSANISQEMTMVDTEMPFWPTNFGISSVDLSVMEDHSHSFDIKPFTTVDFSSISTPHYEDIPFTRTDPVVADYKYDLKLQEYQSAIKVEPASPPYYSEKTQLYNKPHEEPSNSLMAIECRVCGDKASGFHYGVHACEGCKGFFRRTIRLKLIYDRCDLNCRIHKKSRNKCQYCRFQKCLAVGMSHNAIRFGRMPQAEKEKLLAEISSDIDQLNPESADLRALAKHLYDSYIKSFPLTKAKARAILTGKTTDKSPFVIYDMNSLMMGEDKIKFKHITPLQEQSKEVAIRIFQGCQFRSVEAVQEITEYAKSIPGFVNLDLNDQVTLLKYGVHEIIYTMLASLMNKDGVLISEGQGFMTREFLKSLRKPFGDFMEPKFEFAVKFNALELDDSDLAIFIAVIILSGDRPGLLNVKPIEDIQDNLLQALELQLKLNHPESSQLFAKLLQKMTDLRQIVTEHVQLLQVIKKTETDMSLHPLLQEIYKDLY

| SMILES | EC50 |
| --- | --- |
| COc1ccc(/C=C/c2cc(OC)cc(OCc3ccc(OC(C)(C)C(=O)O)c(F)c3)c2)cc1 | 20.6 µM |
| CCOc1ccc(/C=C/c2cc(OCC)cc(OCc3ccc(OCC(=O)O)c(F)c3)c2)cc1 | 22.6 µM |
| COc1ccc(/C=C/c2cc(OC)cc(OCc3ccc(OCC(=O)O)cc3)c2)cc1 | 15.6 µM |
| COc1ccc(/C=C/c2cc(OC)cc(OCCCCCCCC(=O)O)c2)cc1 | 25.8 µM |

target: T3, Peroxisome proliferator-activated receptor delta (Homo sapiens, UniProt Q03181); assay: Agonist activity at human PPARdelta measured by dual luciferase reporter gene assay; settings: not given
T3 sequence (Q03181 whole entry): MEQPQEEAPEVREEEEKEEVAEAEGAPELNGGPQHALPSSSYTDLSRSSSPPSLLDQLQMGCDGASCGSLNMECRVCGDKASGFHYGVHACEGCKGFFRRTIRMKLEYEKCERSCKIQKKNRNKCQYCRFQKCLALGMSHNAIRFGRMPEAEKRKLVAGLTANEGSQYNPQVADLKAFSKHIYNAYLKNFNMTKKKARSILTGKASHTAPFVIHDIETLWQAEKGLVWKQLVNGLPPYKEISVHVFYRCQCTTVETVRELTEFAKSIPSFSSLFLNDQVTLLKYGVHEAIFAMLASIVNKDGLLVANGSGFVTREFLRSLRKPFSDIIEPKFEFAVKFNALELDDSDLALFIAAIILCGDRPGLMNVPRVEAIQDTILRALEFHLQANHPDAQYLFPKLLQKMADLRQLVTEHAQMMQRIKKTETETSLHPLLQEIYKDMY

| SMILES | EC50 |
| --- | --- |
| COc1ccc(/C=C/c2cc(OC)cc(OCc3ccc(OC(C)(C)C(=O)O)c(F)c3)c2)cc1 | 2.8 µM |
| O=C(O)COc1ccc(COc2cccc(-c3nc4cc(Cl)ccc4o3)c2)cc1F | 20.8 µM |
| CCOc1ccc(/C=C/c2cc(OCC)cc(OCc3ccc(OCC(=O)O)c(F)c3)c2)cc1 | 5.7 µM |
| COc1ccc(/C=C/c2cc(OC)cc(OCc3ccc(OCC(=O)O)cc3)c2)cc1 | 8.75 µM |
| COc1ccc(/C=C/c2cc(OC)cc(OCCCCCCCC(=O)O)c2)cc1 | 6.5 µM |
| O=C(O)COc1ccc(COc2cccc(-c3nc4ccccc4s3)c2)cc1F | 10.2 µM |

test system: Mus musculus; assay: Hypolipidemic activity in Triton1339W-induced hyperlipidemic ICR mouse model assessed as reduction in plasma TG level at 80 mg/kg, administered once daily for 5 days; assay type: functional, organism-based; settings: time 5.0 day

| SMILES | Activity |
| --- | --- |
| COc1ccc(/C=C/c2cc(OC)cc(OCc3ccc(OC(C)(C)C(=O)O)c(F)c3)c2)cc1 | Active |
| CCOc1ccc(/C=C/c2cc(OCC)cc(OCc3ccc(OCC(=O)O)c(F)c3)c2)cc1 | Active |
| COc1ccc(/C=C/c2cc(OC)cc(OCc3ccc(OCC(=O)O)cc3)c2)cc1 | Active |
| COc1ccc(/C=C/c2cc(OC)cc(OCCCCCCCC(=O)O)c2)cc1 | Active |

test system: Mus musculus; assay: Hypolipidemic activity in Triton1339W-induced hyperlipidemic ICR mouse model assessed as reduction in plasma TC level at 80 mg/kg, administered once daily for 5 days; assay type: functional, organism-based; settings: time 5.0 day

| SMILES | Activity |
| --- | --- |
| COc1ccc(/C=C/c2cc(OC)cc(OCc3ccc(OC(C)(C)C(=O)O)c(F)c3)c2)cc1 | Active |
| CCOc1ccc(/C=C/c2cc(OCC)cc(OCc3ccc(OCC(=O)O)c(F)c3)c2)cc1 | Active |
| COc1ccc(/C=C/c2cc(OC)cc(OCc3ccc(OCC(=O)O)cc3)c2)cc1 | Active |
| COc1ccc(/C=C/c2cc(OC)cc(OCCCCCCCC(=O)O)c2)cc1 | Active |
| COc1ccc(-c2cccc(OCc3ccc(OCC(=O)O)c(F)c3)c2)cc1 | Active |

test system: not listed separately; assay: Clearance in rat liver microsomes in presence of NADPH measured by LC/MS analysis; assay type: ADME, Microsome; settings: read-out: CLH

| SMILES | microsomal CLint |
| --- | --- |
| COc1ccc(/C=C/c2cc(OC)cc(OCCCCCCCC(=O)O)c2)cc1 | 72 µL/min/mg |

test system: not listed separately; assay: Half-life in rat liver microsomes in presence of NADPH measured by LC/MS analysis; assay type: ADME, Microsome; settings: not given

| SMILES | half-life |
| --- | --- |
| COc1ccc(/C=C/c2cc(OC)cc(OCCCCCCCC(=O)O)c2)cc1 | 19.3 min |

test system: Mus musculus; assay: Anti-NASH activity in high-fat/high-sugar diet and CCl4-induced nonalcoholic steatohepatitis male C57BL/6 mouse assessed as decrease in disease activity score at 100 mg/kg, po administered for 4 weeks; assay type: functional, organism-based; settings: not given

| SMILES | Activity |
| --- | --- |
| COc1ccc(/C=C/c2cc(OC)cc(OCCCCCCCC(=O)O)c2)cc1 | Active |

test system: Mus musculus; assay: Anti-NASH activity in high-fat/high-sugar diet and CCl4-induced nonalcoholic steatohepatitis male C57BL/6 mouse assessed as decrease in hepatocyte ballooning score at 100 mg/kg, po administered for 4 weeks; assay type: functional, organism-based; settings: not given

| SMILES | Activity |
| --- | --- |
| COc1ccc(/C=C/c2cc(OC)cc(OCCCCCCCC(=O)O)c2)cc1 | Active |

test system: Mus musculus; assay: Anti-NASH activity in high-fat/high-sugar diet and CCl4-induced nonalcoholic steatohepatitis male C57BL/6 mouse assessed as decrease in lobular inflammation score at 100 mg/kg, po administered for 4 weeks; assay type: functional, organism-based; settings: not given

| SMILES | Activity |
| --- | --- |
| COc1ccc(/C=C/c2cc(OC)cc(OCCCCCCCC(=O)O)c2)cc1 | Active |

test system: Mus musculus; assay: Anti-NASH activity in high-fat/high-sugar diet and CCl4-induced nonalcoholic steatohepatitis male C57BL/6 mouse assessed as decrease in F4/80 expression at 100 mg/kg, po administered for 4 weeks; assay type: functional, organism-based; settings: not given

| SMILES | Activity |
| --- | --- |
| COc1ccc(/C=C/c2cc(OC)cc(OCCCCCCCC(=O)O)c2)cc1 | Active |

test system: Mus musculus; assay: Protection against liver fibrosis in high-fat/high-sugar diet and CCl4-induced nonalcoholic steatohepatitis male C57BL/6 mouse assessed as decrease in collagen area at 100 mg/kg, po administered for 4 weeks; assay type: functional, organism-based; settings: not given

| SMILES | Activity |
| --- | --- |
| COc1ccc(/C=C/c2cc(OC)cc(OCCCCCCCC(=O)O)c2)cc1 | Active |

test system: Mus musculus; assay: Protection against liver fibrosis in high-fat/high-sugar diet and CCl4-induced nonalcoholic steatohepatitis male C57BL/6 mouse assessed as decrease in alpha-SMA expression in liver at 100 mg/kg, po administered for 4 weeks; assay type: functional, organism-based; settings: not given

| SMILES | Activity |
| --- | --- |
| COc1ccc(/C=C/c2cc(OC)cc(OCCCCCCCC(=O)O)c2)cc1 | Active |

test system: Mus musculus; assay: Anti-fibrotic activity in high-fat/high-sugar diet and CCl4-induced nonalcoholic steatohepatitis male C57BL/6 mouse assessed as decrease in COL1A1 mRNA expression at 100 mg/kg, po administered for 4 weeks; assay type: functional, organism-based; settings: not given

| SMILES | Activity |
| --- | --- |
| COc1ccc(/C=C/c2cc(OC)cc(OCCCCCCCC(=O)O)c2)cc1 | Active |

From ChEMBL document CHEMBL5154671 (Eur J Med Chem, 2022)
